# Reference: patent US20140058103A1, “Inhibitors of PI3K-Delta and Methods of Their Use and Manufacture” (Exelixis, Inc., priority 2010, published 2014)
# Biological target: PI3K delta (Homo sapiens, UniProt O00329)
# Assay: Luciferase-coupled chemiluminescence kinase assay (ATP consumption, KinaseGlo)
# Assay type: biochemical
# Method in brief: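 ATP consumption measured by KinaseGlo luciferase chemiluminescence after a 2 h reaction at ambient temperature, with ATP at or below the kinase KM. Ten inhibitor concentrations per curve; IC50 from four-parameter nonlinear regression.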
# Chain of PI3K delta (O00329 whole entry): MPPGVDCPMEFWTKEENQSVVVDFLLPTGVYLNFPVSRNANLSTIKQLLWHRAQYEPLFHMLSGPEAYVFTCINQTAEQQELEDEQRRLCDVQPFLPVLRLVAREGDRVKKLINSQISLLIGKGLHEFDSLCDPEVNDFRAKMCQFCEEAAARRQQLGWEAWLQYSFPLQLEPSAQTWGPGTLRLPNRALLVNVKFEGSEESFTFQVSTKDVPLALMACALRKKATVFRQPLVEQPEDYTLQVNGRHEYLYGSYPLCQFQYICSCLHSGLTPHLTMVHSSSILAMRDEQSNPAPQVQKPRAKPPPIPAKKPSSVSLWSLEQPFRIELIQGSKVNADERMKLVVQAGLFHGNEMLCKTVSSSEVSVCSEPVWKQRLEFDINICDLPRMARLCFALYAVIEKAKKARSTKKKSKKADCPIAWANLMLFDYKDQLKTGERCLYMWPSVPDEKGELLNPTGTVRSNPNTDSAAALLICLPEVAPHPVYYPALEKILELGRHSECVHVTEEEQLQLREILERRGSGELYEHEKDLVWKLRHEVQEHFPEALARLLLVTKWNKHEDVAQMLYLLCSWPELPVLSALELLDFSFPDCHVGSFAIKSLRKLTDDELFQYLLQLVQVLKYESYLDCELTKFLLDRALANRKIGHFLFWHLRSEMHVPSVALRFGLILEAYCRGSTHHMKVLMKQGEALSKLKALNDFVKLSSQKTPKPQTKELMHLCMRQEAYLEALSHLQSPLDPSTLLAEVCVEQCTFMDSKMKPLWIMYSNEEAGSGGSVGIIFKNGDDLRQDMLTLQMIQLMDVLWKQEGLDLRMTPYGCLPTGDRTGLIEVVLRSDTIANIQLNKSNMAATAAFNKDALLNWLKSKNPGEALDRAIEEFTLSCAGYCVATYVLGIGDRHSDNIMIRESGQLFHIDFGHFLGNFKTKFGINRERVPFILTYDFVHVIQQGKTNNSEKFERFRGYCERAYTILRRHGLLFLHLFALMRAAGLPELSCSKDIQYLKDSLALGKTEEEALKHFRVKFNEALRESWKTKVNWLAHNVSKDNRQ
# Chain of PI3K delta (P27986 whole entry partner): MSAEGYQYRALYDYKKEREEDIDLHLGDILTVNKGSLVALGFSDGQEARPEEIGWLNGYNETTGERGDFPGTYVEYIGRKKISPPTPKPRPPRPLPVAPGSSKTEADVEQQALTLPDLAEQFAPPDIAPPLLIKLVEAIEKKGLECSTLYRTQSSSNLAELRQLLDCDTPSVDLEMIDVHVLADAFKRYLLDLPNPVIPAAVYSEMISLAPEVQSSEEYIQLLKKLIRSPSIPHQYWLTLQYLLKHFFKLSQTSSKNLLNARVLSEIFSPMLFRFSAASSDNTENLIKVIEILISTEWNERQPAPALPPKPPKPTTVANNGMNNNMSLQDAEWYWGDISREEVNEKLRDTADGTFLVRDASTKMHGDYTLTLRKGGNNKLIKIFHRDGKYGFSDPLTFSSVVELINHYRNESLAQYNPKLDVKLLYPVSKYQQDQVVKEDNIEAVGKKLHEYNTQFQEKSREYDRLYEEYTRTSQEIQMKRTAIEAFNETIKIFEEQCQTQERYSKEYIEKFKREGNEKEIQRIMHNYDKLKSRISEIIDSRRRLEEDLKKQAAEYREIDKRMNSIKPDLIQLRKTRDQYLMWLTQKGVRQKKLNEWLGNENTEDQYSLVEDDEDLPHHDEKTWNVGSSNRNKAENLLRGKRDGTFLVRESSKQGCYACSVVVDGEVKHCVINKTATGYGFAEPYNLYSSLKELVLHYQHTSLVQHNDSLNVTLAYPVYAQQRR
row,IC50 [nM],SMILES
1,< 50,"CNc1ncc(-c2nc3c(N4CCC(n5c(=O)[nH]c6ccccc65)CC4)ncnc3n2C)cn1 [Compound 309, 1-(1-{9-methyl-8-[2-(methylamino)pyrimidin-5-yl]-9H-purin-6-yl}piperidin-4-yl)-1,3-dihydro-2H-benzimidazol-2-one]"
2,< 50,"COc1ncc(-c2nc3c(N4CCC(n5c(=O)[nH]c6ccccc65)CC4)ncnc3n2C)cn1 [Compound 310, 1-(1-{9-methyl-8-[2-(methyloxy)pyrimidin-5-yl]-9H-purin-6-yl}piperidin-4-yl)-1,3-dihydro-2H-benzimidazol-2-one]"
3,< 50,"CN(C)c1ncc(-c2nc3c(N4CCC(n5c(=O)[nH]c6ccccc65)CC4)ncnc3n2C)cn1 [Compound 311, 1-(1-{8-[2-(dimethylamino)pyrimidin-5-yl]-9-methyl-9H-purin-6-yl}piperidin-4-yl)-1,3-dihydro-2H-benzimidazol-2-one]"
4,< 50,"CCn1c(-c2ccnnc2)nc2c(N3CCC(n4c(=O)[nH]c5ccccc54)CC3)ncnc21 [Compound 312, 1-[1-(9-ethyl-8-pyridazin-4-yl-9H-purin-6-yl)piperidin-4-yl]-1,3-dihydro-2H-benzimidazol-2-one]"
5,50 to 250,"Cn1c(-c2ccnnc2)nc2c(N3CCC4(CC3)C(=O)Nc3ccccc34)ncnc21 [Compound 313, 1′-(9-methyl-8-pyridazin-4-yl-9H-purin-6-yl)spiro[indole-3,4′-piperidin]-2(1H)-one]"
6,< 50,"CCn1c(-c2ccc(C(F)(F)F)nc2)nc2c(N3CCC(n4c(=O)[nH]c5ccccc54)CC3)ncnc21 [Compound 314, 1-(1-{9-ethyl-8-[6-(trifluoromethyl)pyridin-3-yl]-9H-purin-6-yl}piperidin-4-yl)-1,3-dihydro-2H-benzimidazol-2-one]"
7,< 50,"Cn1c(-c2ccc(C(F)(F)F)nc2)nc2c(N3CCC(n4c(=O)[nH]c5ncccc54)CC3)ncnc21 [Compound 315, 1-(1-{9-methyl-8-[6-(trifluoromethyl)pyridin-3-yl]-9H-purin-6-yl}piperidin-4-yl)-1,3-dihydro-2H-imidazo[4,5-b]pyridin-2-one]"
8,< 50,"CCn1c(-c2ccnnc2)nc2c(N3CCC4(CC3)C(=O)Nc3ccccc34)ncnc21 [Compound 316, 1′-(9-ethyl-8-pyridazin-4-yl-9H-purin-6-yl)spiro[indole-3,4′-piperidin]-2(1H)-one]"
9,500 to 1500,"COC(=O)[C@H]1CN(c2ncnc3c2nc(-c2cnn(C)c2)n3C)CC[C@H]1n1c(=O)[nH]c2ccccc21 [Compound 317, methyl (3S,4R)-1-[9-methyl-8-(1-methyl-1H-pyrazol-4-yl)-9H-purin-6-yl]-4-(2-oxo-2,3-dihydro-1H-benzimidazol-1-yl)piperidine-3-carboxylate]"
10,< 50,"CCn1c(C(=O)NCC(F)(F)F)nc2c(N3CCC(n4c(=O)[nH]c5ncccc54)CC3)ncnc21 [Compound 318, 9-ethyl-6-[4-(2-oxo-2,3-dihydro-1H-imidazo[4,5-b]pyridin-1-yl)piperidin-1-yl]-N-(2,2,2-trifluoroethyl)-9H-purine-8-carboxamide]"
11,< 50,"Cn1c(C(=O)NCC(F)(F)F)nc2c(N3CCC(n4c(=O)[nH]c5ncccc54)CC3)ncnc21 [Compound 319, 9-methyl-6-[4-(2-oxo-2,3-dihydro-1H-imidazo[4,5-b]pyridin-1-yl)piperidin-1-yl]-N-(2,2,2-trifluoroethyl)-9H-purine-8-carboxamide]"
12,< 50,"CCn1c(-c2cnc(N(C)C)nc2)nc2c(N3CCC(n4c(=O)[nH]c5ccccc54)CC3)ncnc21 [Compound 320, 1-[1-{8-[2-(dimethylamino)pyrimidin-5-yl]-9-ethyl-9H-purin-6-yl)piperidin-4-yl)-1,3-dihydro-2H-benzimidazol-2-one]"
13,500 to 1500,"CCn1c(-c2cnc(OC)nc2OC)nc2c(N3CCC(n4c(=O)[nH]c5ccccc54)CC3)ncnc21 [Compound 321, 1-(1-{8-[2,4-bis(methyloxy)pyrimidin-5-yl]-9-ethyl-9H-purin-6-yl}piperidin-4-yl)-1,3-dihydro-2H-benzimidazol-2-one]"
14,< 50,"CCn1cc(-c2nc3c(N4CCC(n5c(=O)[nH]c6ncccc65)CC4)ncnc3n2C)cn1 [Compound 322, 1-{1-[8-(1-ethyl-1H-pyrazol-4-yl)-9-methyl-9H-purin-6-yl]piperidin-4-yl}-1,3-dihydro-2H-imidazo[4,5-b]pyridin-2-one]"
15,< 50,"CCn1c(-c2cnn(C)c2)nc2c(N3CCC(n4c(=O)[nH]c5ncccc54)CC3)ncnc21 [Compound 323, 1-{1-[9-ethyl-8-(1-methyl-1H-pyrazol-4-yl)-9H-purin-6-yl]piperidin-4-yl}-1,3-dihydro-2H-imidazo[4,5-b]pyridin-2-one]"
16,< 50,"CCn1c(-c2ccc(C(F)(F)F)nc2)nc2c(N3CCC4(CC3)C(=O)Nc3ccccc34)ncnc21 [Compound 324, 1′-{9-ethyl-8-[6-(trifluoromethyl)pyridin-3-yl]-9H-purin-6-yl}spiro[indole-3,4′-piperidin]-2(1H)-one]"

row,IC50 [nM],SMILES
1,< 50,"CCn1cc(-c2nc3c(N4CCC(n5c(=O)[nH]c6ncccc65)CC4)ncnc3n2CC)cn1 [Compound 325, 1-{1-[9-ethyl-8-(1-ethyl-1H-pyrazol-4-yl)-9H-purin-6-yl]piperidin-4-yl}-1,3-dihydro-2H-imidazo[4,5-b]pyridin-2-one]"
2,< 50,"CCn1c(-c2ccc(C(F)(F)F)nc2)nc2c(N3CCC(n4c(=O)[nH]c5ncccc54)CC3)ncnc21 [Compound 326, 1-(1-{9-ethyl-8-[6-(trifluoromethyl)pyridin-3-yl]-9H-purin-6-yl}piperidin-4-yl)-1,3-dihydro-2H-imidazo[4,5-b]pyridin-2-one]"
3,< 50,"Cn1c(-c2ccc(C(F)(F)F)nc2)nc2c(N3CCC4(CC3)C(=O)Nc3ccccc34)ncnc21 [Compound 327, 1′-{9-methyl-8-[6-(trifluoromethyl)pyridin-3-yl]-9H-purin-6-yl}spiro[indole-3,4′-piperidin]-2(1H)-one]"
4,< 50,"CCn1c(C(=O)N[C@H]2CC[C@H](O)CC2)nc2c(N3CCC(n4c(=O)[nH]c5ncccc54)CC3)ncnc21 [Compound 328, 9-ethyl-N-(trans-4-hydroxycyclohexyl)-6-[4-(2-oxo-2,3-dihydro-1H-imidazo[4,5-b]pyridin-1-yl)piperidin-1-yl]-9H-purine-8-carboxamide]"
5,< 50,"Cn1c(C(=O)N[C@H]2CC[C@H](O)CC2)nc2c(N3CCC(n4c(=O)[nH]c5ncccc54)CC3)ncnc21 [Compound 329, N-(trans-4-hydroxycyclohexyl)-9-methyl-6-[4-(2-oxo-2,3-dihydro-1H-imidazo[4,5-b]pyridin-1-yl)piperidin-1-yl]-9H-purine-8-carboxamide]"
6,< 50,"Cc1c(-c2nc3c(N4CCC(n5c(=O)[nH]c6ncccc65)CC4)ncnc3n2C)cnn1C [Compound 331, 1-{1-[8-(1,5-dimethyl-1H-pyrazol-4-yl)-9-methyl-9H-purin-6-yl]piperidin-4-yl}-1,3-dihydro-2H-imidazo[4,5-b]pyridin-2-one]"
7,50 to 250,"Cc1nnc(-c2nc3c(N4CCC(n5c(=O)[nH]c6ccccc65)CC4)ncnc3n2C)n1C [Compound 332, 1-{1-[8-(4,5-dimethyl-4H-1,2,4-triazol-3-yl)-9-methyl-9H-purin-6-yl]piperidin-4-yl}-1,3-dihydro-2H-benzimidazol-2-one]"
8,< 50,"Cc1ncc(-c2nc3c(N4CCC(n5c(=O)[nH]c6ccccc65)CC4)ncnc3n2C)n1C [Compound 333, 1-{1-[8-(1,2-dimethyl-1H-imidazol-5-yl)-9-methyl-9H-purin-6-yl]piperidin-4-yl)-1,3-dihydro-2H-benzimidazol-2-one]"
9,< 50,"COC(=O)[C@@H]1CN(c2ncnc3c2nc(-c2cnn(C)c2)n3C)CC[C@H]1n1c(=O)[nH]c2ccccc21 [Compound 334, methyl (3R,4R)-1-[9-methyl-8-(1-methyl-1H-pyrazol-4-yl)-9H-purin-6-yl]-4-(2-oxo-2,3-dihydro-1H-benzimidazol-1-yl)piperidine-3-carboxylate]"
10,50 to 250,"Cn1c(-c2cccnn2)nc2c(N3CCC(n4c(=O)[nH]c5ncccc54)CC3)ncnc21 [Compound 335, 1-[1-(9-methyl-8-pyridazin-3-yl-9H-purin-6-yl)piperidin-4-yl]-1,3-dihydro-2H-imidazo[4,5-b]pyridin-2-one]"
11,< 50,"Cc1ncc(-c2nc3c(N4CCC(n5c(=O)[nH]c6ncccc65)CC4)ncnc3n2C)n1C [Compound 336, 1-{1-[8-(1,2-dimethyl-1H-imidazol-5-yl)-9-methyl-9H-purin-6-yl]piperidin-4-yl)-1,3-dihydro-2H-imidazo[4,5-b]pyridin-2-one]"
12,< 50,"CCn1ncc(-c2nc3c(N4CCC(n5c(=O)[nH]c6ncccc65)CC4)ncnc3n2C)c1C [Compound 337, 1-{1-[8-(1-ethyl-5-methyl-1H-pyrazol-4-yl)-9-methyl-9H-purin-6-yl]piperidin-4-yl}-1,3-dihydro-2H-imidazo[4,5-b]pyridin-2-one]"
13,50 to 250,"Cn1cc(-c2nc3c(N4CC[C@@H](n5c(=O)[nH]c6ccccc65)[C@H](CO)C4)ncnc3n2C)cn1 [Compound 338, 1-{(3R,4R)-3-(hydroxymethyl)-1-[9-methyl-8-(1-methyl-1H-pyrazol-4-yl)-9H-purin-6-yl]piperidin-4-yl}-1,3-dihydro-2H-benzimidazol-2-one]"
14,500 to 1500,"Cn1c(CNC(=O)OC(C)(C)C)nc2c(N3CCC(n4c(=O)[nH]c5ccccc54)CC3)ncnc21 [Compound 339, 1,1-dimethylethyl ({9-methyl-6-[4-(2-oxo-2,3-dihydro-1H-benzimidazol-1-yl)piperidin-1-yl]-9H-purin-8-yl}methyl)carbamate]"
15,< 50,"Cc1ncc(-c2nc3c(N4CCC(n5c(=O)[nH]c6ccccc65)CC4)ncnc3n2C)cn1 [Compound 340, 1-{1-[9-methyl-8-(2-methylpyrimidin-5-yl)-9H-purin-6-yl]piperidin-4-yl}-1,3-dihydro-2H-benzimidazol-2-one]"
16,250 to 500,"Cn1cc(-c2nc3c(N4CCC(n5c(=O)[nH]c6cnccc65)CC4)ncnc3n2C)cn1 [Compound 341, 1-{1-[9-methyl-8-(1-methyl-1H-pyrazol-4-yl)-9H-purin-6-yl]piperidin-4-yl}-1,3-dihydro-2H-imidazo[4,5-c]pyridin-2-one]"
